Measurements: the supplement of paper PMC10307832

Assays:
Assay in all cases: relative viability (nuclei count vs DMSO), 5 days (fraction); higher = more cells survive
Obatoclax + Foretinib = compound: COC1=CC(c2cc3ccccc3[nH]2)=N/C1=C\c1[nH]c(C)cc1C [Obatoclax] + COc1cc2c(Oc3ccc(NC(=O)C4(C(=O)Nc5ccc(F)cc5)CC4)cc3F)ccnc2cc1OCCCN1CCOCC1 [Foretinib] (partner 0.25 µM)
Outline: (§1)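 Cells from lung cancer lines were seeded into 1536-well plates and, one day later, dosed by pin tool. Treatments were either a single drug or a fixed dose of an anchor drug with five library-drug doses (not always all listed) in √10 steps. After 5 days, nuclei were stained in a one-step fixation (final 0.05% Triton X-100, 1% formaldehyde, 1 ug/ml Hoechst) and counted on 4× images, and relative viability is the treated-to-vehicle nuclei ratio, as the median of duplicate plates.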

Obatoclax + Vorinostat = compound: COC1=CC(c2cc3ccccc3[nH]2)=N/C1=C\c1[nH]c(C)cc1C [Obatoclax] + O=C(CCCCCCC(=O)Nc1ccccc1)NO [Vorinostat] (partner 1 µM)
Outline: as §1

[1] = compound: CC1=CC(=NN1)NC2=CC(=NC(=N2)/C=C/C3=CC=CC=C3)N4CCN(CC4)C + Cc1nc(Nc2ncc(C(=O)Nc3c(C)cccc3Cl)s2)cc(N2CCN(CCO)CC2)n1 [Dasatinib] (partner 0.075 µM)
Outline: as §1

[2] = compound: CC1=CC(=NN1)NC2=CC(=NC(=N2)/C=C/C3=CC=CC=C3)N4CCN(CC4)C + CCNC(=O)c1noc(-c2cc(C(C)C)c(O)cc2O)c1-c1ccc(CN2CCOCC2)cc1 [Luminespib] (partner 0.01 µM)
Outline: as §1

A-427
relative viability (Obatoclax + Foretinib; first compound 0.01 µM): 1.16
relative viability (Obatoclax + Foretinib; first compound 0.03162 µM): 0.989
relative viability (Obatoclax + Foretinib; first compound 0.1 µM): 1.01
relative viability (Obatoclax + Foretinib; first compound 0.3162 µM): 0.972
relative viability (Obatoclax + Foretinib; first compound 1 µM): 0.984
relative viability (Obatoclax + Vorinostat; first compound 0.01 µM): 0.839
relative viability (Obatoclax + Vorinostat; first compound 0.03162 µM): 0.836
relative viability (Obatoclax + Vorinostat; first compound 0.1 µM): 0.741
relative viability (Obatoclax + Vorinostat; first compound 0.3162 µM): 0.835
relative viability (Obatoclax + Vorinostat; first compound 1 µM): 0.664
relative viability ([1]; first compound 0.08 µM): 0.789
relative viability ([1]; first compound 0.253 µM): 0.579
relative viability ([1]; first compound 0.8 µM): 0.631
relative viability ([1]; first compound 2.53 µM): 0.156
relative viability ([1]; first compound 8 µM): 0.0981
relative viability ([2]; first compound 0.08 µM): 0.775
relative viability ([2]; first compound 0.253 µM): 0.984
relative viability ([2]; first compound 0.8 µM): 0.873
relative viability ([2]; first compound 2.53 µM): 0.361
relative viability ([2]; first compound 8 µM): 0.105

UMC-11
relative viability (Obatoclax + Foretinib; first compound 0.01 µM): 1.07
relative viability (Obatoclax + Foretinib; first compound 0.03162 µM): 1.08
relative viability (Obatoclax + Foretinib; first compound 0.1 µM): 1.05
relative viability (Obatoclax + Foretinib; first compound 0.3162 µM): 0.716
relative viability (Obatoclax + Foretinib; first compound 1 µM): 0.382
relative viability (Obatoclax + Vorinostat; first compound 0.01 µM): 0.39
relative viability (Obatoclax + Vorinostat; first compound 0.03162 µM): 0.439
relative viability (Obatoclax + Vorinostat; first compound 0.1 µM): 0.375
relative viability (Obatoclax + Vorinostat; first compound 0.3162 µM): 0.407
relative viability (Obatoclax + Vorinostat; first compound 1 µM): 0.288
relative viability ([1]; first compound 0.08 µM): 0.487
relative viability ([1]; first compound 0.253 µM): 0.426
relative viability ([1]; first compound 0.8 µM): 0.329
relative viability ([1]; first compound 2.53 µM): 0.163
relative viability ([1]; first compound 8 µM): 0.125
relative viability ([2]; first compound 0.08 µM): 0.903
relative viability ([2]; first compound 0.253 µM): 0.996
relative viability ([2]; first compound 0.8 µM): 0.715
relative viability ([2]; first compound 2.53 µM): 0.182
relative viability ([2]; first compound 8 µM): 0.125

NCI-H596
relative viability (Obatoclax + Foretinib; first compound 0.01 µM): 0.758
relative viability (Obatoclax + Foretinib; first compound 0.03162 µM): 0.798
relative viability (Obatoclax + Foretinib; first compound 0.1 µM): 0.823
relative viability (Obatoclax + Foretinib; first compound 0.3162 µM): 0.535
relative viability (Obatoclax + Foretinib; first compound 1 µM): 0.492
relative viability (Obatoclax + Vorinostat; first compound 0.01 µM): 0.555
relative viability (Obatoclax + Vorinostat; first compound 0.03162 µM): 0.467
relative viability (Obatoclax + Vorinostat; first compound 0.1 µM): 0.543
relative viability (Obatoclax + Vorinostat; first compound 0.3162 µM): 0.585
relative viability (Obatoclax + Vorinostat; first compound 1 µM): 0.296
relative viability ([1]; first compound 0.08 µM): 0.638
relative viability ([1]; first compound 0.253 µM): 0.522
relative viability ([1]; first compound 0.8 µM): 0.536
relative viability ([1]; first compound 2.53 µM): 0.357
relative viability ([1]; first compound 8 µM): 0.216
relative viability ([2]; first compound 0.08 µM): 1.04
relative viability ([2]; first compound 0.253 µM): 0.927
relative viability ([2]; first compound 0.8 µM): 0.777
relative viability ([2]; first compound 2.53 µM): 0.402
relative viability ([2]; first compound 8 µM): 0.2

LU99A
relative viability (Obatoclax + Foretinib; first compound 0.01 µM): 0.875
relative viability (Obatoclax + Foretinib; first compound 0.03162 µM): 0.792
relative viability (Obatoclax + Foretinib; first compound 0.1 µM): 0.774
relative viability (Obatoclax + Foretinib; first compound 0.3162 µM): 0.619
relative viability (Obatoclax + Foretinib; first compound 1 µM): 0.714
relative viability (Obatoclax + Vorinostat; first compound 0.01 µM): 0.557
relative viability (Obatoclax + Vorinostat; first compound 0.03162 µM): 0.459
relative viability (Obatoclax + Vorinostat; first compound 0.3162 µM): 0.463
relative viability (Obatoclax + Vorinostat; first compound 1 µM): 0.224
relative viability ([1]; first compound 0.08 µM): 0.546
relative viability ([1]; first compound 0.253 µM): 0.547
relative viability ([1]; first compound 0.8 µM): 0.475
relative viability ([1]; first compound 2.53 µM): 0.22
relative viability ([1]; first compound 8 µM): 0.146
relative viability ([2]; first compound 0.08 µM): 0.254
relative viability ([2]; first compound 0.253 µM): 0.235
relative viability ([2]; first compound 0.8 µM): 0.192
relative viability ([2]; first compound 2.53 µM): 0.197
relative viability ([2]; first compound 8 µM): 0.161

NCI-H2009
relative viability (Obatoclax + Foretinib; first compound 0.01 µM): 1.24
relative viability (Obatoclax + Foretinib; first compound 0.03162 µM): 1.25
relative viability (Obatoclax + Foretinib; first compound 0.1 µM): 1.23
relative viability (Obatoclax + Foretinib; first compound 0.3162 µM): 0.477
relative viability (Obatoclax + Foretinib; first compound 1 µM): 0.333
relative viability (Obatoclax + Vorinostat; first compound 0.01 µM): 0.723
relative viability (Obatoclax + Vorinostat; first compound 0.03162 µM): 0.73
relative viability (Obatoclax + Vorinostat; first compound 0.1 µM): 0.634
relative viability (Obatoclax + Vorinostat; first compound 0.3162 µM): 0.502
relative viability (Obatoclax + Vorinostat; first compound 1 µM): 0.251
relative viability ([1]; first compound 0.08 µM): 0.325
relative viability ([1]; first compound 0.253 µM): 0.307
relative viability ([1]; first compound 0.8 µM): 0.329
relative viability ([1]; first compound 2.53 µM): 0.15
relative viability ([1]; first compound 8 µM): 0.0844
relative viability ([2]; first compound 0.08 µM): 0.989
relative viability ([2]; first compound 0.253 µM): 1.04
relative viability ([2]; first compound 0.8 µM): 0.987
relative viability ([2]; first compound 2.53 µM): 1.05
relative viability ([2]; first compound 8 µM): 0.2
